According to patent publication US10654866B2, “Selective estrogen receptor degraders” (Eli Lilly and Company, priority 2018, dated 2020):
Read-outs that look alike come from different tables or passages of the source.

Legend:
[1] = target: ERα (Homo sapiens (Human), UniProt P03372); test: PRα induction assay in MCF7 cells; type: cell-based; conditions: MCF7 breast cancer cells
Method: The purpose of the following PRα induction assay is to determine whether a test compound has agonistic activity against ERα receptor (an agonist would be expected to activate the receptor).
Culture MCF7 (purchased from ATCC HTB-22) in DMEM media supplemented with 10% FBS, 0.01 mg/mL human insulin 1 and 1% penicillin/streptomycin antibiotics and plate the cells (prior to becoming 70% confluent) in 384-well flat-bottom plates at a density of 4,000 cells per well in 20 μL volume in DMEM phenol red free media containing 10% FBS (charcoal stripped). Incubate the cells overnight in a cell culture incubator (5% CO2, 95% relative humidity at 37° C.) and allow the cells to attach to the plate. The following day, dose the cells with test compound. Use an Echo 555 acoustic dispenser to prepare compound serial dilutions (1:3) in a range from 6 μM to 0.0003 μM. Dose the cells with the addition of the test compound (5 μL) from the serial dilution plate to the cell plate producing a final DMSO concentration of 0.2% with a final concentration of the test compound dose range between 2 and 0.0001 μM. For the maximum point use media containing 0.2% of DMSO and for the minimum point, use fulvestrant diluted at 2 μM final concentrations in the growth media containing 0.2% DMSO. After dosing with the test compound, incubate the cell plates at 37° C. and 5% CO2 for 24 hours. Fix the cells by adding 14% para-formaldehyde (10 μL) for 30 minutes at room temperature. Wash cells once with PBS (20 μL) and incubate with PBS (20 μL) containing 0.5% (v/v) TWEEN® 20 for 1 hour. Wash cells twice with PBS (20 μL) containing 0.05% TWEEN® 20 and block with 3% BSA in PBS containing 0.05% TWEEN® 20 and 0.1% TRITON™ X-100 (20 μL/well) for 1 hour at room temperature. […]
The following day, wash cells with PBS 0.05% TWEEN® 20 (2×20 μL) and incubate with secondary antibody (20 μL/well) (1:1000 dilution, Goat anti-rabbit IgM ALEXA FLUOR™ 488) in PBS 1% BSA for 105 minutes at room temperature. […] Scan plates with ACUMEN EXPLORER™ [Laser-scanning fluorescence microplate cytometer manufactured by TTP LABTECH LTD] to measure PRα. […]

[2] = system: MCF7 ESR1 wild type; test: Cell proliferation assay in MCF7; type: cell-based, human; conditions: seven days, read-out: Relative IC50 (μM) MCF7 ESR1 wild type
Method: (§1) Seed MCF7 (purchased from ATCC HTB-22) cells at a density of 2,000 cells per well in DMEM phenol red free media 10% FBS (20 μL volume) (charcoal stripped) into a clear bottom 384-well cell culture plate. Plate MCF7-ESRY537N-682 (generated by CRISPR/Cas9 gene editing of ESr1 gene in MCF7 cells, clone #682) in DMEM media supplemented with 10% FBS, and 1% penicillin/streptomycin antibiotics at a density of 1000 cells per well. Incubate the plates at 37° C. and 5% CO2. The following day dose the cells with the test compound. Use an Echo 555 acoustic dispenser to prepare test compound serial dilutions (1:3) in a range from 60 μM to 0.003 μM. Dose the cells with the addition of 5 μL from the serial dilution plate to the cell plate, producing a final DMSO concentration of 0.2% with a final test compound concentration dose range between 20 and 0.001 μM. For the maximum point use media containing 0.2% of DMSO and for the minimum point use fulvestrant diluted at 2 μM final concentrations in the growth media containing 0.2% DMSO. After dosing with the test compound, incubate the cell plates at 37° C. and 5% CO2. Seven days after test compound addition, remove the plates from the incubator and add cold EtOH 96% (65 μL) to each well. […] Seal the plates and incubate 1 hour at room temperature on the bench (preserved from light). Scan the plates with ACUMEN EXPLORER™ [Laser-scanning fluorescence microplate cytometer manufactured by TTP LABTECH LTD].

[3] = system: MCF7 ESR1 Y537N mutant cells; test: Cell proliferation assay in MCF7-ESR1 Y537N-682; type: cell-based, human; conditions: seven days, read-out: Relative IC50 (μM) MCF7 ESR1 Y537N mutant cells
Method: as §1

[4] = system: MCF7 ER-positive breast cancer model; test: In vivo combination studies in MCF7 ER-positive breast cancer xenograft model; set-up: species or system mice; conditions: Example 10 15 mpk; for Difference (Treatment 1 − Treatment 2): Treatment 1 = Vehicle, log10 tumor volume, QD × 42, PO
Description: Otherwise, the statistical conclusion is additive.

ERα, sequence (P03372 whole entry): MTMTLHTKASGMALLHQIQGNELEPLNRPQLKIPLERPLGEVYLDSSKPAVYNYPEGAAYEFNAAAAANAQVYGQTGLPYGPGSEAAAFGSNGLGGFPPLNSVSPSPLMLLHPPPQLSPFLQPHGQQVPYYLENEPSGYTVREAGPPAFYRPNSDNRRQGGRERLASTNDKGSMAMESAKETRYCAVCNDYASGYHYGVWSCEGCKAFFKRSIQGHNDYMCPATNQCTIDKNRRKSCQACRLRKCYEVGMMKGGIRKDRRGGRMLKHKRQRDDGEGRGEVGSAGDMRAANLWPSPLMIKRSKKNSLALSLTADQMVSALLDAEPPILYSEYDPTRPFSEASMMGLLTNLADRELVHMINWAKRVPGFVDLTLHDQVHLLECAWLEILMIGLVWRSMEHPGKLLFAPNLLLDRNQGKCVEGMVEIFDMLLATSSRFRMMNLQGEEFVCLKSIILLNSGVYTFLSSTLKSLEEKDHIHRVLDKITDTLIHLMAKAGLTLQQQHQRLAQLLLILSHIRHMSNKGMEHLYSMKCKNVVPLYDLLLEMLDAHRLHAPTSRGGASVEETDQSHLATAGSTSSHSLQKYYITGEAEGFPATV

agonistic activity [1]	IC50 ([2]; Homo sapiens, MCF7, […]) [µM]	IC50 ([3]; Homo sapiens, MCF7, […]) [µM]	IC50 [3] [µM]	IC50 [2] [µM]	Compound	Delta T/C % or % Regression ([4]; Abemaciclib 50 mpk, QD × 42, PO (Table 20)) [%]	Delta T/C % or % Regression ([4]; Everolimus 5 mpk, QD × 42, PO (Table 24)) [%]	Delta T/C % or % Regression ([4]; alpelisib 15 mpk (d1-d7), 10 mpk (d8-42), QD × 42, PO (Table 22)) [%]	Difference (Treatment 1 − Treatment 2) ([4]; Abemaciclib 50 mpk)	Difference (Treatment 1 − Treatment 2) ([4]; Everolimus 5 mpk)	Difference (Treatment 1 − Treatment 2) ([4]; alpelisib 15 mpk (d1-d7), 10 mpk (d8-42))
no significant agonistic activity	0.00768 ± 0.0126	0.0321 ± 0.0068			Oc1ccc2c3c(cnc2c1)-c1ccc(C(F)(F)F)cc1OC3c1ccc(OCCN2CC(CF)C2)cc1 (racemic) [Example 1, 5-(4-{2-[3-(Fluoromethyl)azetidin-1-yl]ethoxy}phenyl)-8-(trifluoromethyl)-5H-[1]benzopyrano[4,3-c]quinolin-2-ol]						
no significant agonistic activity			1.86 ± 1.03		Oc1ccc2c3c(cnc2c1)-c1ccc(C(F)(F)F)cc1OC3c1ccc(OCCN2CC(CF)C2)cc1 (single isomer, unassigned) [Example 1A, 5-(4-{2-[3-(Fluoromethyl)azetidin-1-yl]ethoxy}phenyl)-8-(trifluoromethyl)-5H-[1]benzopyrano[4,3-c]quinolin-2-ol]						
			0.0106	0.00438	Cc1ccc(S(=O)(=O)O)cc1.Oc1ccc2c3c(cnc2c1)-c1ccc(C(F)(F)F)cc1OC3c1ccc(OCCN2CC(CF)C2)cc1 (single isomer, unassigned; isomer 2) [Example 10, 5-(4-{2-[3-(Fluoromethyl)azetidin-1-yl]ethoxy}phenyl)-8-(trifluoromethyl)-5H-[1]benzopyrano[4,3-c]quinolin-2-ol, 4-methylbenzenesulfonic acid, Isomer 2]	−51	−51	−51	0.659	0.445	0.241
